Measured values reported in US20250114345A1, “COMPOUNDS AND COMPOSITIONS AS CBP/P300 DEGRADERS AND USES THEREOF” (Oncopia Therapeutics, Inc. d/b/a/ SK Life Science Labs, priority 2023, published 2025).

Molecular target: T1, p300 (Homo sapiens, UniProt Q09472)
T1 construct: host or cells: A549 P300 HiBit cells
Test: P300 degradation, HiBit technology in A549 P300 HiBit cells (2 h)
Type: cell-based
Settings: 2 hrs post treatment; for Dmax: A549, A549 P300 HiBit cells; for DC50: A549 P300 HiBit cells
Method in brief: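 Luminescence after lytic HiBiT detection (10 min, room temperature) gave degradation potency and Dmax. Before that, knock-in A549 cells grown overnight in F-12K/10% HI-FBS were exposed to serially diluted compound at 37 °C, 5% CO2 for the assay time stated.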

T1 sequence (Q09472 whole entry): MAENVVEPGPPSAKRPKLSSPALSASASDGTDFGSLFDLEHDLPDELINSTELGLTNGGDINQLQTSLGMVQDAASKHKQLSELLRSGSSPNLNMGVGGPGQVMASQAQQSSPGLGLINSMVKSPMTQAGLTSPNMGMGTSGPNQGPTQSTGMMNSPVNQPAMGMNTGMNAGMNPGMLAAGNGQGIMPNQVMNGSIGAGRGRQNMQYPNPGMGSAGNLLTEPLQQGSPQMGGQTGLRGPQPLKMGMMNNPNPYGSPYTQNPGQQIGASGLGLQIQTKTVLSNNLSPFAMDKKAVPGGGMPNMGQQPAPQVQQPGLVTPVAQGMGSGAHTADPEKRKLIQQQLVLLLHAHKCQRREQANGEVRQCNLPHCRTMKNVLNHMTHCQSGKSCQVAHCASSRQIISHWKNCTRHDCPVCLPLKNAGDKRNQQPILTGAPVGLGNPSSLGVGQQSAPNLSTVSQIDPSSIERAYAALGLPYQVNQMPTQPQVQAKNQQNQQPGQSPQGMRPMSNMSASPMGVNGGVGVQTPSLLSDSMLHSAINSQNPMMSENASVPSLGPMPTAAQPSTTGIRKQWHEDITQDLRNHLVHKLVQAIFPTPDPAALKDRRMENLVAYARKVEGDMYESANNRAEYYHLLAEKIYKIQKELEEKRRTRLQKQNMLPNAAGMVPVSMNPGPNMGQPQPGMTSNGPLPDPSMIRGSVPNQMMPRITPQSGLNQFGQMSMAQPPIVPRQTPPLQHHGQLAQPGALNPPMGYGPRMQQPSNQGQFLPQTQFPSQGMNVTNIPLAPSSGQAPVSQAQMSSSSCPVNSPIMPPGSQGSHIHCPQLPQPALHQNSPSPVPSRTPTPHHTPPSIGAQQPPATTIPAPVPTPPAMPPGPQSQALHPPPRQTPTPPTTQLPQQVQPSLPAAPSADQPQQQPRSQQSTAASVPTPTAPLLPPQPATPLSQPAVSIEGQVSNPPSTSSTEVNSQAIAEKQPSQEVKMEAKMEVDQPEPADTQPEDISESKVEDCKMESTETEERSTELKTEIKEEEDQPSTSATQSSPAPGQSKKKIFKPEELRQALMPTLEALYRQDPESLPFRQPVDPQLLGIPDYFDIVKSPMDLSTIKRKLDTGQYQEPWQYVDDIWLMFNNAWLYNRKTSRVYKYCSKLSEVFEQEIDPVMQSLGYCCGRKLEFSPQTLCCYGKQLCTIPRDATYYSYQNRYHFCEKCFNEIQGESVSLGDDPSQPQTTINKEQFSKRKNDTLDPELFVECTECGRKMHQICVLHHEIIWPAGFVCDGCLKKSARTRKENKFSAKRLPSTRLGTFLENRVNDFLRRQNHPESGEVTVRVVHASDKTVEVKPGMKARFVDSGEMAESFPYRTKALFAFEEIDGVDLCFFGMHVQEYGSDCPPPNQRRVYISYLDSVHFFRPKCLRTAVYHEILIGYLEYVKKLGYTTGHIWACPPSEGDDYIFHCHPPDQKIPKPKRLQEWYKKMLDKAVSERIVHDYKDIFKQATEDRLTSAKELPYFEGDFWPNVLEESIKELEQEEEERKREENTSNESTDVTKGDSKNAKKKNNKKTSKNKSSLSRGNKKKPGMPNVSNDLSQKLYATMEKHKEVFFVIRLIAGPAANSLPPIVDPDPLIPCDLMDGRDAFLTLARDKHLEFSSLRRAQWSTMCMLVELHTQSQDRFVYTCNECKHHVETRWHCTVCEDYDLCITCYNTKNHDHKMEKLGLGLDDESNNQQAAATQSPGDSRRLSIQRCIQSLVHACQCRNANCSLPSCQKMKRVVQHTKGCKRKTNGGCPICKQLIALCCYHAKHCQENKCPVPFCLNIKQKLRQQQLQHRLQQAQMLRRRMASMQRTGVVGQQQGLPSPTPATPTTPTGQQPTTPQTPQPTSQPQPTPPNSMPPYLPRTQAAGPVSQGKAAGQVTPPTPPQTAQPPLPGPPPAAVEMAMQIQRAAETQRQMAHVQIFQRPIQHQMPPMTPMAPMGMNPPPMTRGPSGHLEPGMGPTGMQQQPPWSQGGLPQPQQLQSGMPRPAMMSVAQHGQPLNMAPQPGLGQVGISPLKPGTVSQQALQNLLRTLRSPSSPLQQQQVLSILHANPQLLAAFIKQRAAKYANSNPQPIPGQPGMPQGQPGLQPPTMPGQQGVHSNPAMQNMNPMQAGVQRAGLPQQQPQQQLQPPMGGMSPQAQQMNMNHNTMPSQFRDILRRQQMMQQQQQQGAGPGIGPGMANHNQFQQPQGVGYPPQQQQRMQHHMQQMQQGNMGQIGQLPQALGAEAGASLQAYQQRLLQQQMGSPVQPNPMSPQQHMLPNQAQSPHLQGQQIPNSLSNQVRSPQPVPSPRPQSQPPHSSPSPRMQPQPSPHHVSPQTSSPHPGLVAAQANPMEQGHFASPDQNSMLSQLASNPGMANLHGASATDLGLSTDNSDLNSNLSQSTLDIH

| Compound | Dmax | DC50 |
| --- | --- | --- |
| CN1CCN(c2ccc3c(c2)n(C)c(=O)n3C)c2cnc(-c3ccc(C(=O)NCC#Cc4cc5c(C6CCC(=O)NC6=O)nccc5o4)nc3)nc21 (centres unmarked) [Example A245, 5-(5-(1,3-dimethyl-2-oxo-2,3-dihydro-1H-benzo[d]imidazol-5-yl)-8-methyl-5,6,7,8-tetrahydropteridin-2-yl)-N-(3-(4-(2,6-dioxopiperidin-3-yl)furo[3,2-c]pyridin-2-yl)prop-2-yn-1-yl) picolinamide] | > 80% | < 0.001 µM |
| Cn1c(=O)n(C)c2cc(N3CCOc4nc(-c5ccc(C(=O)NCC#Cc6ccn7ncc(C8CCC(=O)NC8=O)c7c6)nc5)ncc43)ccc21 (centres unmarked) [Example A246, 5-(5-(1,3-dimethyl-2-oxo-2,3-dihydro-1H-benzo[d]imidazol-5-yl)-6,7-dihydro-5H-pyrimido[4,5-b][1,4]oxazin-2-yl)-N-(3-(3-(2,6-dioxopiperidin-3-yl)pyrazolo[1,5-a]pyridin-5-yl)prop-2-yn-1-yl)picolinamide] | 40 to 59% | 0.001 to 0.0099 µM |
| CC(C)c1cc(-c2cccc3cc(-c4ccc(C(=O)NCC#Cc5cnc6c(c5)N(C5CCC(=O)NC5=O)CC6)nc4)ncc23)cc2c1n(C)c(=O)n2C (centres unmarked) [Example A249, N-(3-(1-(2,6-dioxo-piperidin-3-yl)-2,3-dihydro-1H-pyrrolo [3,2-b]pyridin-6-yl)prop-2-yn-1-yl)-5-(8-(7-isopropyl-1,3-dimethyl-2-oxo-2,3-dihydro-1H-benzo[d]imidazol-5-yl)isoquinolin-3-yl)picolinamide] | 20 to 39% | 0.01 to 0.099 µM |
| Cc1cc(-c2ncc3c(n2)OCCN3c2cc(C3CCOCC3)c3c(c2)n(C)c(=O)n3C)cnc1C(=O)NCC#Cc1cc2c(C3CCC(=O)NC3=O)cccc2o1 (centres unmarked) [Example A252, 5-(5-(1,3-dimethyl-2-oxo-7-(tetrahydro-2H-pyran-4-yl)-2,3-dihydro-1H-benzo[d]imidazol-5-yl)-6,7-dihydro-5H-pyrimido[4,5-b][1,4]oxazin-2-yl)-N-(3-(4-(2,6-dioxopiperidin-3-yl)benzofuran-2-yl)prop-2-yn-1-yl)-3-methylpicolinamide] | > 80% | 0.001 to 0.0099 µM |
| Cn1c(=O)n(C)c2c(N3CC4CCC(C3)O4)nc(-c3cccc4cc(-c5ccc(C(=O)NCC#Cc6cc7c(C8CCC(=O)NC8=O)cccc7o6)nc5)ncc34)cc21 (centres unmarked) [Example A253, 5-(8-(4-(8-oxa-3-azabicyclo[3.2.1]octan-3-yl)-1,3-dimethyl-2-oxo-2,3-dihydro-1H-imidazo[4,5-c]pyridin-6-yl)isoquinolin-3-yl)-N-(3-(4-(2,6-dioxopiperidin-3-yl)benzofuran-2-yl)prop-2-yn-1-yl)picolinamide] | > 80% | < 0.001 µM |
| Cc1cc(-c2ncc(N(C)c3cc(C4CCOCC4)c4c(c3)n(C)c(=O)n4C)cn2)cnc1C(=O)NCC#Cc1cc2c(C3CCC(=O)NC3=O)cccc2o1 (centres unmarked) [Example A256, 5-(5-((1,3-dimethyl-2-oxo-7-(tetrahydro-2H-pyran-4-yl)-2,3-dihydro-1H-benzo[d]imidazol-5-yl)(methyl)amino)pyrimidin-2-yl)-N-(3-(4-(2,6-dioxo-piperidin-3-yl)benzo-furan-2-yl)prop-2-yn-1-yl)-3-methylpicolinamide] | > 80% | 0.001 to 0.0099 µM |
| Cc1cc(-c2cc(F)c(Nc3cc(C4CCOCC4)c4c(c3)n(C)c(=O)n4C)cc2C(F)F)cnc1C(=O)NCC#Cc1cc2c(C3CCC(=O)NC3=O)cccc2o1 (centres unmarked) [Example A257, 5-(2-(difluoromethyl)-4-((1,3-dimethyl-2-oxo-7-(tetrahydro-2H-pyran-4-yl)-2,3-dihydro-1H-benzo [d]imidazol-5-yl)amino)-5-fluoro-phenyl)-N-(3-(4-(2,6-dioxopiperidin-3-yl)benzofuran-2-yl)prop-2-yn-1-yl)-3-methylpicolinamide] | 60 to 79% | 0.001 to 0.0099 µM |
| Cc1cc(-c2ncc3c(n2)OCCN3c2ccc3c(c2)n(C)c(=O)n3C)cnc1C(=O)NCC#Cc1ccc2occ(C34CC(C3)C(=O)NC4=O)c2c1 [Example A262, 5-(5-(1,3-dimethyl-2-oxo-2,3-dihydro-1H-benzo[d]imidazol-5-yl)-6,7-dihydro-5H-pyrimido[4,5-b] [1,4]oxazin-2-yl)-N-(3-(3-(2,4-dioxo-3-azabicyclo[3.1.1]heptan-1-yl)benzofuran-5-yl)prop-2-yn-1-yl)-3-methylpicolinamide] | > 80% | 0.01 to 0.099 µM |
| Cn1c(=O)n(C)c2cc(N3CC(C)(C)Oc4nc(-c5ccc(C(=O)NCC#Cc6cc7c(C8CCC(=O)NC8=O)cccc7o6)nc5)ncc43)ccc21 (centres unmarked) [Example A264, 5-(5-(1,3-dimethyl-2-oxo-2,3-dihydro-1H-benzo[d]imidazol-5-yl)-7,7-dimethyl-6,7-dihydro-5H-pyrimido [4,5-b][1,4]oxazin-2-yl)-N-(3-(4-(2,6-dioxopiperidin-3-yl)benzofuran-2-yl)prop-2-yn-1-yl)picolinamide] | > 80% | 0.001 to 0.0099 µM |
| Cn1c(=O)n(C)c2c(F)cc(N3CCOc4nc(-c5ccc(C(=O)NCC#Cc6cc7c(C8CCC(=O)NC8=O)cccc7o6)nc5)ncc43)cc21 (centres unmarked) [Example A265, N-(3-(4-(2,6-dioxo-piperidin-3-yl)benzofuran-2-yl)prop-2-yn-1-yl)-5-(5-(7-fluoro-1,3-dimethyl-2-oxo-2,3-dihydro-1H-benzo[d]imidazol-5-yl)-6,7-dihydro-5H-pyrimido[4,5-b][1,4]oxazin-2-yl)picolinamide] | 20 to 39% | 0.01 to 0.099 µM |
| CCn1c(=O)n(C)c2ccc(-c3cccc4cc(-c5ccc(C(=O)NCC#Cc6cc7c(C8CCC(=O)NC8=O)cccc7o6)nc5)ncc34)cc21 (centres unmarked) [Example A267, N-(3-(4-(2,6-dioxo-piperidin-3-yl)benzofuran-2-yl)prop-2-yn-1-yl)-5-(8-(3-ethyl-1-methyl-2-oxo-2,3-dihydro-1H-benzo [d]imidazol-5-yl)isoquinolin-3-yl)picolinamide] | > 80% | 0.001 to 0.0099 µM |
| Cn1c(=O)n(C)c2ncc(N3CCOc4nc(-c5ccc(C(=O)NCC#Cc6cc7c(C8CCC(=O)NC8=O)cccc7o6)nc5)ncc43)cc21 (centres unmarked) [Example A268, 5-(5-(1,3-dimethyl-2-oxo-2,3-dihydro-1H-imidazo[4,5-b]pyridin-6-yl)-6,7-dihydro-5H-pyrimido[4,5-b] [1,4]oxazin-2-yl)-N-(3-(4-(2,6-dioxopiperidin-3-yl)benzofuran-2-yl)prop-2-yn-1-yl)picolinamide] | 20 to 39% | 0.01 to 0.099 µM |
| CCc1cc(-c2cccc3cc(-c4ccc(C(=O)NCC#Cc5ccc6c(C)nn(C7CCC(=O)NC7=O)c6c5)nc4)ncc23)c2cc(C)c(=O)n(C)c2c1 (centres unmarked) [Example B1, N-(3-(1-(2,6-Dioxopiperidin-3-yl)-3-methyl-1H-indazol-6-yl)prop-2-yn-1-yl)-5-(8-(7-ethyl-1,3-dimethyl-2-oxo-1,2-dihydroquinolin-5-yl)isoquinolin-3-yl)picolinamide] | 60 to 79% | 0.01 to 0.099 µM |
| CCc1cc(-c2cccc3cc(-c4ccc(C(=O)NCC#Cc5cc6c(cnn6C6CCC(=O)NC6=O)cc5C)nc4)ncc23)c2cc(C)c(=O)n(C)c2c1 (centres unmarked) [Example B3, N-(3-(1-(2,6-Dioxopiperidin-3-yl)-5-methyl-1H-indazol-6-yl)prop-2-yn-1-yl)-5-(8-(7-ethyl-1,3-dimethyl-2-oxo-1,2-dihydroquinolin-5-yl)isoquinolin-3-yl)picolinamide] | 20 to 39% | 0.01 to 0.099 µM |
| CCc1cc(-c2cccc3cc(-c4ccc(C(=O)NCC#Cc5cc(C)c6cnn(C7CCC(=O)NC7=O)c6c5)nc4)ncc23)c2cc(C)c(=O)n(C)c2c1 (centres unmarked) [Example B6, N-(3-(1-(2,6-Dioxopiperidin-3-yl)-4-methyl-1H-indazol-6-yl)prop-2-yn-1-yl)-5-(8-(7-ethyl-1,3-dimethyl-2-oxo-1,2-dihydroquinolin-5-yl)isoquinolin-3-yl)picolinamide] | 60 to 79% | 0.01 to 0.099 µM |
| CCc1cc(S(=O)(=O)c2ccc(-c3cnc(C(=O)NCC#Cc4cccc(NC5CCC(=O)NC5=O)c4)c(C)c3)nc2)c2cc(C)c(=O)n(C)c2c1 (centres unmarked) [Example B10, N-(3-(3-((2,6-Dioxopiperidin-3-yl)amino)phenyl)prop-2-yn-1-yl)-5-((7-ethyl-1,3-dimethyl-2-oxo-1,2-dihydroquinolin-5-yl)sulfonyl)-5′-methyl-[2,3′-bipyridine]-6′-carboxamide] | < 20% | > 1 µM |
| CCc1cc(N(C)c2ccc(-c3cnc(C(=O)NCC#Cc4cccc(NC5CCC(=O)NC5=O)c4)c(C)c3)c(Cl)c2)c2cc(C)c(=O)n(C)c2c1 (centres unmarked) [Example B11, 5-(2-Chloro-4-((7-ethyl-1,3-dimethyl-2-oxo-1,2-dihydroquinolin-5-yl)(methyl)amino)phenyl)-N-(3-(3-((2,6-dioxopiperidin-3-yl)amino)phenyl)prop-2-yn-1-yl)-3-methylpicolinamide] | > 80% | 0.01 to 0.099 µM |
| CCc1cc(-c2cccc3cc(-c4ccc(C(=O)NCC#Cc5ccc6c(c5)ncn6C5CCC(=O)NC5=O)nc4)ncc23)c2cc(C)c(=O)n(C)c2c1 (centres unmarked) [Example B12, N-(3-(1-(2,6-Dioxopiperidin-3-yl)-1H-benzo[d]imidazol-5-yl)prop-2-yn-1-yl)-5-(8-(7-ethyl-1,3-dimethyl-2-oxo-1,2-dihydroquinolin-5-yl)isoquinolin-3-yl)picolinamide] | < 20% | > 1 µM |
| CCc1cc(-c2cccc3cc(-c4ccc(C(=O)NCC#Cc5ccc6cnn(C7CCC(=O)NC7=O)c6c5)nc4)ncc23)c2c(n1)N(C)C(=O)N(C)C2 (centres unmarked) [Example B13, N-(3-(1-(2,6-Dioxopiperidin-3-yl)-1H-indazol-6-yl)prop-2-yn-1-yl)-5-(8-(7-ethyl-1,3-dimethyl-2-oxo-1,2,3,4-tetrahydropyrido[2,3-d]pyrimidin-5-yl)isoquinolin-3-yl)picolinamide] | > 80% | 0.001 to 0.0099 µM |
